Here are results for 9 compounds from article doi:10.1101/2021.10.04.463106, “A high throughput screening assay for inhibitors of SARS-CoV-2 pseudotyped particle entry” (bioRxiv, 2021).

The structures appear in SMILES notation. Where a name gives a salt, the structure may show the parent alone.

A short description of data set [1]: ATP content cytotoxicity assay. The following applies: human, HEK293-ACE2 cells.
Data set [2] has as its system SARS-CoV-2-S PP (Wuhan-Hu-1 spike). In words: microbe, parasite or virus in culture. Format: cell-based. The conditions noted are these: Severe acute respiratory syndrome coronavirus 2, read-out: PP EC50.
The test system of data set [3] is SARS-CoV-2 (USA_WA1/2020). Format: cell-based.
The test system of data set [4] is VSV-G PP. Format: cell-based, vesicular stomatitis virus.

What is called EC50 is the midpoint of the concentration-response curve.

In data set [1], `CCOC(=O)[C@H]1O[C@@H]1C(=O)N[C@@H](CC(C)C)C(=O)NCCC(C)C` [Aloxistatin, aloxistatin] registered an EC50 at 48 h greater than 50000 nM. Moreover, the EC50 in data set [2] was determined as 190 nM. On the same counts, the results for `Cc1cccc(/C=N/Nc2cc(N3CCOCC3)nc(OCCc3ccccn3)n2)c1` [Apilimod, apilimod] are 9310 nM and 120 nM. The corresponding values for `COc1cc(N2CCC(N3CCN(C)CC3)CC2)ccc1Nc1ncc(Cl)c(Nc2ccccc2P(C)(C)=O)n1` [Brigatinib, brigatinib] are 670 nM and 4300 nM. Take `CCCC[C@@H](C=O)NC(=O)[C@H](CC(C)C)NC(=O)OCc1ccccc1` [Calpeptin, calpeptin]: in data set [1], the EC50 at 48 h is greater than 50000 nM. Also, the EC50 in data set [2] was determined as 1200 nM. Regarding `Oc1ccc(Cl)cc1Cc1cc(Cl)ccc1O` [Dichlorophen, dichlorophen], the EC50 in data set [2] came out at 30 nM. Also, the “protective effect against cell death caused by the virus (CPE rescue)” value in data set [3] is on record as “not confirmed”.

`Nc1ncnc2c1ncn2CCOCP(=O)(O)O` [adefovir]: the “potency in the VSV-G PP entry counter assay compared with SARS-CoV-2-S PP entry” value in data set [4] is “same potency”. As for `C[C@@H]1CCO[C@H]2Cn3cc(C(=O)NCc4ccc(F)cc4F)c(=O)c(O)c3C(=O)N12` [dolutegravir], the “potency in the VSV-G PP entry counter assay compared with SARS-CoV-2-S PP entry” value in data set [4] is “same potency”. Same read-out and setting: for `COc1cc2c(cc1Cc1cccc(Cl)c1F)c(=O)c(C(=O)O)cn2[C@H](CO)C(C)C` [elvitegravir] the value was “same potency”; for `CC(C)OC(=O)OCOP(=O)(CO[C@H](C)Cn1cnc2c(N)ncnc21)OCOC(=O)OC(C)C` [tenofovir disoproxil fumarate], “same potency”.
